The source of these data is ChEMBL document CHEMBL2029281, “An improved microwave assisted one-pot synthesis, and biological investigations of some novel aryldiazenyl chromeno fused pyrrolidines” (2012).

The subject of test [1] is Mycobacterium tuberculosis. In words: Growth inhibition of Mycobacterium tuberculosis H37Rv at 0.2 ug/mL. Type of test: functional. The following applies: read-out: GI.
Another test has as its system Aspergillus fumigatus. In words: Antifungal activity against Aspergillus fumigatus MTCC 3008 by macrobroth dilution assay. Type of test: functional.
The next test deals with Candida albicans. In words: Antifungal activity against Candida albicans MTCC 227 by macrobroth dilution assay. Type of test: functional.
The next test has as its system Streptococcus pneumoniae. As to the kind of experiment: Antibacterial activity against Streptococcus pneumoniae MTCC 1936 by macrobroth dilution assay. Type of test: functional.
For another test, the system named is Clostridium tetani. As to the kind of experiment: Antibacterial activity against Clostridium tetani MTCC 449 by macrobroth dilution assay. Type of test: functional.
The next test relates to Bacillus subtilis. As to the kind of experiment: Antibacterial activity against Bacillus subtilis MTCC 441 by macrobroth dilution assay. Type of test: functional.
The next test relates to Salmonella typhi. As to the kind of experiment: Antibacterial activity against Salmonella typhi MTCC 98 by macrobroth dilution assay. Type of test: functional, Salmonella enterica subsp. enterica serovar Typhi. The following applies: Salmonella enterica.
For a further test, the system named is Vibrio cholerae. In words: Antibacterial activity against Vibrio cholerae MTCC 3906 by macrobroth dilution assay. Type of test: functional.
In the next test the test system is Escherichia coli. As to the kind of experiment: Antibacterial activity against Escherichia coli MTCC 443 by macrobroth dilution assay. Type of test: functional.
Test [2] concerns Mycobacterium tuberculosis. In words: Growth inhibition of Mycobacterium tuberculosis H37Rv at 250 ug/mL. Type of test: functional. The following applies: read-out: GI.
In test [3] the test system is Mycobacterium tuberculosis. In words: Growth inhibition of Mycobacterium tuberculosis H37Rv at >[…]. Type of test: functional.

In brackets after ≈: the same amount, converted by molar mass.

In the case of `NNC(=O)c1ccncc1` [ISONIAZID], the inhibition of growth at 0.2 µg/mL in [1] was 99%.
As to NYSTATIN, the MIC against Aspergillus fumigatus and against Candida albicans was 100 µg/mL throughout.
Regarding `CCN1[C@@H](C(=O)OC)C[C@@H]2COc3ccc(/N=N/c4ccccc4)cc3[C@@H]21`, the MIC is 200 µg/mL (≈ 547 µM) in the test on Streptococcus pneumoniae; more than 250 µg/mL in the test with Clostridium tetani; 200 µg/mL (≈ 547 µM) against Bacillus subtilis; more than 250 µg/mL against Salmonella typhi; more than 250 µg/mL against Vibrio cholerae; 200 µg/mL (≈ 547 µM) against Escherichia coli. Besides, the MIC in the test with Aspergillus fumigatus and against Candida albicans was more than 250 µg/mL in each case. Also, the inhibition of growth at 250 µg/mL in [2] came out at 55%.
On to `CCCCOC(=O)[C@H]1C[C@@H]2COc3ccc(/N=N/c4ccccc4)cc3[C@@H]2N1C`, for which the MIC in the test with Streptococcus pneumoniae is 250 µg/mL (≈ 635 µM); in the test with Clostridium tetani it was 100 µg/mL (≈ 254 µM); against Bacillus subtilis, 50 µg/mL (≈ 127 µM); against Salmonella typhi, 250 µg/mL (≈ 635 µM); against Vibrio cholerae, 200 µg/mL (≈ 508 µM); against Escherichia coli, 250 µg/mL (≈ 635 µM). The MIC against Aspergillus fumigatus and with Candida albicans was more than 250 µg/mL in each case. For the same molecule, the inhibition of growth at 250 µg/mL in test [2] was determined as 25%.
Regarding `CCOC(=O)[C@H]1C[C@@H]2COc3ccc(/N=N/c4ccccc4)cc3[C@@H]2N1C`, the MIC with Streptococcus pneumoniae is 250 µg/mL (≈ 684 µM); with Clostridium tetani, 200 µg/mL (≈ 547 µM); against Bacillus subtilis, more than 250 µg/mL; against Salmonella typhi, 50 µg/mL (≈ 137 µM); in the test with Vibrio cholerae, 125 µg/mL (≈ 342 µM); in the test with Escherichia coli, 50 µg/mL (≈ 137 µM). For the same molecule, the MIC in the test with Aspergillus fumigatus and in the test on Candida albicans was more than 250 µg/mL each time. In test [2], the inhibition of growth at 250 µg/mL came out at 64%.
As to `O=C(N[C@H](CO)[C@H](O)c1ccc([N+](=O)[O-])cc1)C(Cl)Cl` [CHLORAMPHENICOL], the MIC against Streptococcus pneumoniae, in the test with Clostridium tetani, against Bacillus subtilis, with Salmonella typhi, against Vibrio cholerae and with Escherichia coli was 50 µg/mL (≈ 155 µM) throughout.
With `CCCOC(=O)[C@H]1C[C@@H]2COc3ccc(/N=N/c4ccccc4)cc3[C@@H]2N1Cc1ccccc1`, the MIC in the test with Streptococcus pneumoniae turned out to be 200 µg/mL (≈ 439 µM); in the test with Clostridium tetani it was 250 µg/mL (≈ 549 µM); against Bacillus subtilis, 250 µg/mL (≈ 549 µM); with Salmonella typhi it was 250 µg/mL (≈ 549 µM); in the test on Vibrio cholerae it was 100 µg/mL (≈ 220 µM); against Escherichia coli, 250 µg/mL (≈ 549 µM). For the same molecule, the results for the MIC in the test with Aspergillus fumigatus and with Candida albicans were more than 250 µg/mL and 250 µg/mL (≈ 549 µM), respectively. Moreover, the inhibition of growth at 250 µg/mL in test [2] amounted to 84%.
With `Cc1ncc([N+](=O)[O-])n1CCO` [METRONIDAZOLE], the “growth inhibition (GI)” value in [3] is recorded as 99%.
`CCCCOC(=O)[C@H]1C[C@@H]2COc3ccc(/N=N/c4ccccc4)cc3[C@@H]2N1Cc1ccccc1`: the MIC was 25 µg/mL (≈ 53.2 µM) in the test on Streptococcus pneumoniae; more than 250 µg/mL in the test with Clostridium tetani; 250 µg/mL (≈ 532 µM) in the test on Bacillus subtilis; 100 µg/mL (≈ 213 µM) in the test with Salmonella typhi; 250 µg/mL (≈ 532 µM) against Vibrio cholerae; 200 µg/mL (≈ 426 µM) in the test with Escherichia coli. Also, the MIC in the test with Aspergillus fumigatus and in the test on Candida albicans was more than 250 µg/mL each time. In addition, in [2], the inhibition of growth at 250 µg/mL came to 90%.
For `COC(=O)[C@H]1C[C@@H]2COc3ccc(/N=N/c4ccccc4)cc3[C@@H]2N1C`, the MIC is 125 µg/mL (≈ 356 µM) in the test on Streptococcus pneumoniae; more than 250 µg/mL in the test on Clostridium tetani; 125 µg/mL (≈ 356 µM) in the test on Bacillus subtilis; 200 µg/mL (≈ 569 µM) against Salmonella typhi; 100 µg/mL (≈ 285 µM) with Vibrio cholerae; 200 µg/mL (≈ 569 µM) in the test with Escherichia coli. In addition, the results for the MIC with Aspergillus fumigatus and against Candida albicans were more than 250 µg/mL and 250 µg/mL (≈ 711 µM), respectively. The inhibition of growth at 250 µg/mL in test [2] stood at 72%.
Regarding `CCOC(=O)[C@H]1C[C@@H]2COc3ccc(/N=N/c4ccccc4)cc3[C@@H]2N1Cc1ccccc1`, the MIC against Streptococcus pneumoniae was 250 µg/mL (≈ 566 µM); in the test on Clostridium tetani, 200 µg/mL (≈ 453 µM); against Bacillus subtilis, 250 µg/mL (≈ 566 µM); against Salmonella typhi, more than 250 µg/mL; with Vibrio cholerae, 200 µg/mL (≈ 453 µM); in the test on Escherichia coli it was more than 250 µg/mL. For the same molecule, the MIC with Aspergillus fumigatus and in the test with Candida albicans was more than 250 µg/mL each time. Further, the inhibition of growth at 250 µg/mL in test [2] came out at 20%.
With `CCCCOC(=O)[C@H]1C[C@@H]2COc3ccc(/N=N/c4ccccc4)cc3[C@@H]2N1CC`, the MIC was more than 250 µg/mL with Streptococcus pneumoniae; 250 µg/mL (≈ 613 µM) in the test on Clostridium tetani; 100 µg/mL (≈ 245 µM) in the test with Bacillus subtilis; 100 µg/mL (≈ 245 µM) against Salmonella typhi; more than 250 µg/mL against Vibrio cholerae; 200 µg/mL (≈ 491 µM) with Escherichia coli. Further, the MIC is more than 250 µg/mL with Aspergillus fumigatus and 200 µg/mL (≈ 491 µM) in the test on Candida albicans. The inhibition of growth at 250 µg/mL in test [2] was determined as 68%.
As for `CCn1cc(C(=O)O)c(=O)c2cc(F)c(N3CCNCC3)cc21` [NORFLOXACIN], the MIC in the test with Streptococcus pneumoniae was determined as 10 µg/mL (≈ 31.3 µM); against Clostridium tetani, 50 µg/mL (≈ 157 µM); against Bacillus subtilis, 100 µg/mL (≈ 313 µM); in the test on Salmonella typhi, 10 µg/mL (≈ 31.3 µM); against Vibrio cholerae, 10 µg/mL (≈ 31.3 µM); against Escherichia coli, 10 µg/mL (≈ 31.3 µM).
Take `CCOC(=O)[C@H]1C[C@@H]2COc3ccc(/N=N/c4ccccc4)cc3[C@@H]2N1CC`: the MIC against Streptococcus pneumoniae was 100 µg/mL (≈ 264 µM); in the test on Clostridium tetani, 250 µg/mL (≈ 659 µM); against Bacillus subtilis, more than 250 µg/mL; in the test on Salmonella typhi it was 250 µg/mL (≈ 659 µM); against Vibrio cholerae, 250 µg/mL (≈ 659 µM); against Escherichia coli it was more than 250 µg/mL. In addition, the MIC was 250 µg/mL (≈ 659 µM) with Aspergillus fumigatus and more than 250 µg/mL against Candida albicans. Besides, the inhibition of growth at 250 µg/mL in test [2] stood at 98%.
Take `CCCOC(=O)[C@H]1C[C@@H]2COc3ccc(/N=N/c4ccccc4)cc3[C@@H]2N1C`: the MIC against Streptococcus pneumoniae is 250 µg/mL (≈ 659 µM); against Clostridium tetani it was more than 250 µg/mL; in the test on Bacillus subtilis, 250 µg/mL (≈ 659 µM); in the test on Salmonella typhi, 250 µg/mL (≈ 659 µM); against Vibrio cholerae, 250 µg/mL (≈ 659 µM); against Escherichia coli, 250 µg/mL (≈ 659 µM). For the same molecule, the MIC in the test on Aspergillus fumigatus and against Candida albicans was more than 250 µg/mL throughout. Besides, in test [2], the inhibition of growth at 250 µg/mL was found to be 41%.
Take `O=C(O)c1cn(C2CC2)c2cc(N3CCNCC3)c(F)cc2c1=O` [CIPROFLOXACIN]: the MIC in the test with Streptococcus pneumoniae was determined as 50 µg/mL (≈ 151 µM); against Salmonella typhi it was 25 µg/mL (≈ 75.4 µM); against Vibrio cholerae, 25 µg/mL (≈ 75.4 µM); in the test with Escherichia coli, 25 µg/mL (≈ 75.4 µM).
For the molecule `CC1(C)S[C@@H]2[C@H](NC(=O)[C@H](N)c3ccccc3)C(=O)N2[C@H]1C(=O)O` [AMPICILLIN], the MIC is 100 µg/mL (≈ 286 µM) in the test with Streptococcus pneumoniae; 250 µg/mL (≈ 715 µM) in the test with Clostridium tetani; 250 µg/mL (≈ 715 µM) in the test on Bacillus subtilis; 100 µg/mL (≈ 286 µM) in the test on Salmonella typhi; 100 µg/mL (≈ 286 µM) in the test on Vibrio cholerae; 100 µg/mL (≈ 286 µM) against Escherichia coli.
Take `CCCOC(=O)[C@H]1C[C@@H]2COc3ccc(/N=N/c4ccccc4)cc3[C@@H]2N1CC`: the MIC against Streptococcus pneumoniae is more than 250 µg/mL; in the test with Clostridium tetani it was 200 µg/mL (≈ 508 µM); against Bacillus subtilis, 200 µg/mL (≈ 508 µM); in the test with Salmonella typhi it was 100 µg/mL (≈ 254 µM); with Vibrio cholerae, 100 µg/mL (≈ 254 µM); against Escherichia coli, 50 µg/mL (≈ 127 µM). For the same molecule, the MIC in the test on Aspergillus fumigatus and with Candida albicans was more than 250 µg/mL each time. Also, in test [2], the inhibition of growth at 250 µg/mL was 95%.
As to `COC(=O)[C@H]1C[C@@H]2COc3ccc(/N=N/c4ccccc4)cc3[C@@H]2N1Cc1ccccc1`, the MIC is 250 µg/mL (≈ 585 µM) in the test with Streptococcus pneumoniae; 200 µg/mL (≈ 468 µM) in the test with Clostridium tetani; 250 µg/mL (≈ 585 µM) against Bacillus subtilis; 250 µg/mL (≈ 585 µM) with Salmonella typhi; more than 250 µg/mL in the test with Vibrio cholerae; 125 µg/mL (≈ 292 µM) against Escherichia coli. Moreover, the MIC against Aspergillus fumigatus is more than 250 µg/mL; against Candida albicans, 200 µg/mL (≈ 468 µM). Also, the inhibition of growth at 250 µg/mL in test [2] is 87%.
As to `COC1=CC(=O)C[C@@H](C)[C@]12Oc1c(Cl)c(OC)cc(OC)c1C2=O` [GRISEOFULVIN], the MIC in the test on Aspergillus fumigatus came out at 100 µg/mL (≈ 283 µM); in the test with Candida albicans it was 500 µg/mL (≈ 1420 µM).
